Data set [1] is described as follows: Competitive equilibration experiments of anhydrates. Particulars: at both 25° C. and 50° C.
Experimental: Relative stability of the anhydrate Forms A, C, H and J was investigated with competitive equilibration experiments.
Relative stability of the anhydrates Forms C, K and L was investigated with competitive equilibration experiments.
To determine relative stability of anhydrates, competitive equilibration experiments were conducted in different solvent systems.
About 2 mg of each anhydrate was added to 0.3-0.4 mL saturated solutions of selected solvents. Obtained suspensions were stirred at 25° C. for 3-10 days, respectively. Solid parts (wet cakes) were isolated by centrifugation filtration and investigated by XRPD.
Data set [2] in a line: Interconversion of polymorphs (heating, dehydration, humidity, equilibration). Format: physicochemical. From the text: In total, 15 forms were identified to be polymorphs or pseudo-polymorphs of the free form, including seven anhydrates, Forms A, C, H, J, K. L and O; four hydrates, Forms B, F, M and N; and three solvates, Forms D, E and I. In addition, a metastable form, Form G, and an amorphous form were also obtained.
The interconversion relation of polymorphs identified is outlined in FIG. 5.

Data set [3] has as its system LNCaP cells expressing ARR2PB-FireflyLuc and CMV-RenillaLuc. Description: LNCaP ARR2PB-FireflyLuc reporter assay. The format is cell-based. Particulars: Homo sapiens, +/−0.5 nM DHT, 48 h at 37° C. The method, then:
LNCaP cells expressing ARR2PB-FireflyLuc and CMV-RenillaLuc were treated with indicated concentrations of the test compound, enzalutamide (negative control), or DHT (positive control)+/−0.5 nM DHT for 48 h at 37° C. […] signals were read with the ImageXpress Micro Confocal System. Remaining activity (antagonist mode) was calculated as % Remaining Activity=100×[(Readsample−LCave)/(HCave−LCave)] where HC is cells treated with 0.5 nM DHT only and LC is cells treated with 10 uM enzalutamide+0.5 nM DHT. Activation (agonist mode) was calculated as % Activation=100×[(ReadSample−LCave)/(HCave−LCave)] where HC is cells treated with 1 uM DHT and LC is cells treated with DMSO. Dose response curves and IC50 values were calculated using non-linear regression analysis in XLfit.
(Reporter assays use an easily measured gene product as a stand-in for the process of interest.)

A short description of data set [4]: Solution state chemical stability. Format: physicochemical. Particulars: for Purity: ~10 mg/ml. Here is the method: The solution state chemical stability was carried out in acetone, MEK, and 2-MeTHF solvent systems at 50° C. and 55° C. […] The purity of the compound degraded from 99.43% to 98.27% after 48 h holding at 55° C. in MEK solvent system.
2-MeTHF/n-hep was selected as the potential solvent system for the crystallization. The solution state chemical stability was carried out in 2-MeTHF solvent systems at higher temperature (60° C. and 70° C.).

Values joined by “and” are separate entries in the source; they are usually repeats but may differ in a detail not shown here. Equal entries are not always repeated.

By IC50 is commonly meant the concentration at which inhibition is half-maximal.

`Cc1nc(-c2c[nH]c3c(C#N)cccc23)cnc1OCC(C)(C)O` [Form A, 3-(5-(2-hydroxy-2-methylpropoxy)-6-methylpyrazin-2-yl)-1H-indole-7-carbonitrile]: the “Relative thermodynamic stability of anhydrates” value in data set [1] is recorded as “converts to Form C”.
With `Cc1nc(-c2c[nH]c3c(C#N)cccc23)cnc1OCC(C)(C)O` [Form E, 3-(5-(2-hydroxy-2-methylpropoxy)-6-methylpyrazin-2-yl)-1H-indole-7-carbonitrile], the Form conversion entry in data set [2] (after heating to 100° C. by TGA and cooled to room temperature) was “converts to physical mixture of Form F and Form G”.
In the case of `Cc1nc(-c2c[nH]c3c(C#N)cccc23)cnc1OCC(C)(C)O` [3-(5-(2-hydroxy-2-methylpropoxy)-6-methylpyrazin-2-yl)-1H-indole-7-carbonitrile], half-maximal inhibition in data set [3] (IC50) required 50 nM. In addition, the Purity in data set [4] (2-MeTHF, 55° C., 0 h) was determined as 99.35% a %; in data set [4] (2-MeTHF, 55° C., 6 h), 99.55% a %; in data set [4] (2-MeTHF, 55° C., 24 h) it was 99.62% a %; in data set [4] (2-MeTHF, 55° C., 48 h) it was 99.62% a %; in data set [4] (2-MeTHF, 60° C., 0 h), 99.54% a %; in data set [4] (2-MeTHF, 60° C., 24 h), 99.69% a %. In addition, the Purity in data set [4] (2-MeTHF, 60° C., 48 h) came out at 99.56% a %; in data set [4] (2-MeTHF, 70° C., 0 h), 99.53% a %; in data set [4] (2-MeTHF, 70° C., 24 h), 99.70% a %; in data set [4] (2-MeTHF, 70° C., 48 h), 99.44% a %; in data set [4] (2-MeTHF/n-hep = 1 v/1 v, 70° C., 0 h) it was 98.45% a %; in data set [4] (2-MeTHF/n-hep = 1 v/1 v, 70° C., 24 h), 98.44% a %. Also, the Purity in data set [4] (2-MeTHF/n-hep = 1 v/1 v, 70° C., 48 h) is 98.44% a %; in data set [4] (Acetone, 50° C., 0 h), 99.54% a %; in data set [4] (Acetone, 50° C., 6 h) it was 99.50% a %; in data set [4] (Acetone, 50° C., 24 h), 99.51% a %; in data set [4] (Acetone, 50° C., 48 h), 99.69% a %; in data set [4] (MEK, 55° C., 0 h), 99.43 a % and 99.43% a %. Further, the Purity was 99.23% a % in data set [4] (MEK, 55° C., 6 h); 98.54% a % in data set [4] (MEK, 55° C., 24 h); 98.27 a % and 98.27% a % in data set [4] (MEK, 55° C., 48 h). Also, the “Solution state chemical stability” value in data set [4] (after 48 h holding in 2-MeTHF at 60° C. and 70° C.) was “stable”; in data set [4] (after 48 h holding in 2-MeTHF/n-hep=1v/1v at 70° C.), “stable”; in data set [4] (after 48 h holding in both acetone and 2-MeTHF systems (50° C. and 55° C.)), “stable”.
As for `Cc1nc(-c2c[nH]c3c(C#N)cccc23)cnc1OCC(C)(C)O` [amorphous form, 3-(5-(2-hydroxy-2-methylpropoxy)-6-methylpyrazin-2-yl)-1H-indole-7-carbonitrile], the Form conversion entry in data set [2] (after exposure to high humidity) is “crystallized to Form N”.
In the case of `Cc1nc(-c2c[nH]c3c(C#N)cccc23)cnc1OCC(C)(C)O` [Form K, 3-(5-(2-hydroxy-2-methylpropoxy)-6-methylpyrazin-2-yl)-1H-indole-7-carbonitrile], the Form conversion entry in data set [2] (after melting and re-crystallization (DSC, VT-XRPD)) was “converts to Form L”; in data set [2] (exposure to 25° C. in 40-70% RH for 6 days) it was “reverts back to Form B”; in data set [2] (exposure to 25° C./92% RH for 6 days), “converts to hydrate Form B”.
Take `Cc1nc(-c2c[nH]c3c(C#N)cccc23)cnc1OCC(C)(C)O` [Form G, 3-(5-(2-hydroxy-2-methylpropoxy)-6-methylpyrazin-2-yl)-1H-indole-7-carbonitrile]: the Form conversion entry in data set [2] (equilibration in DMSO/water system at 25° C. for 6 days) is “converts to anhydrate Form H”.
Turning to `Cc1nc(-c2c[nH]c3c(C#N)cccc23)cnc1OCC(C)(C)O` [Form B, 3-(5-(2-hydroxy-2-methylpropoxy)-6-methylpyrazin-2-yl)-1H-indole-7-carbonitrile], the Form conversion entry in data set [2] (after dehydration) was “converts to Form K”.
With `Cc1nc(-c2c[nH]c3c(C#N)cccc23)cnc1OCC(C)(C)O` [Form M, 3-(5-(2-hydroxy-2-methylpropoxy)-6-methylpyrazin-2-yl)-1H-indole-7-carbonitrile], the Form conversion result is reported as “converts to Form B” in data set [2] (equilibration in MeOH at 25° C. for another 1 day) and “converted to Form B” in data set [2] (wet cake from methanol, once exposed to the air).
For `Cc1nc(-c2c[nH]c3c(C#N)cccc23)cnc1OCC(C)(C)O` [Form I, 3-(5-(2-hydroxy-2-methylpropoxy)-6-methylpyrazin-2-yl)-1H-indole-7-carbonitrile], the Form conversion result in data set [2] (after heating to 140° C. by TGA and cooled to room temperature) is “converted to physical mixture of Form C, Form N and an unknown peak”.
Turning to `Cc1nc(-c2c[nH]c3c(C#N)cccc23)cnc1OCC(C)(C)O` [Form D, 3-(5-(2-hydroxy-2-methylpropoxy)-6-methylpyrazin-2-yl)-1H-indole-7-carbonitrile], in data set [2] (after desolvation), the Form conversion entry is recorded as “converts to Form C”.

For the origin of these results see patent US12168650B2, “Crystalline forms of 3-(5-(2-hydroxy-2-methylpropoxy)-6-methylpyrazin-2-yl)-1H-indole-7-carbonitrile” (NIDO BIOSCIENCES, INC., priority 2022, dated 2024).
